Legend:
Eph1 = assay: Hydrolysis of epoxy nitriles by cell free extract of recombinant E. coli BL21(DE3)[pEph1]; format: biochemical, Rhodotorula glutinis; details: 50 mM potassium phosphate buffer pH 7.5, 35-37° C., 10 mM epoxide
Experimental: Cell extracts (from cell suspensions prepared according to examples 9, 10 and 11) were prepared by sonication (5 minutes, duty cycle 30%, output control 3) using a Branson sonifier 250. To separate the cell extracts in a soluble and an insoluble fraction the disrupted cells in KPi-buffer were centrifuged for 10 minutes at 4° C. and 20,000×g. The supernatant, containing the soluble proteins, was called the S-fraction. The pellet, containing the insoluble proteins and cell debris, was resuspended in an equal volume of KPi-buffer and referred to as the P-fraction.
The racemic resolution of the epoxy nitrile was performed with the cell free extracts of E. coli BL21(DE3)[pEph1] containing 48 mg protein/L in an aqueous solution of 50 mM potassium phosphate buffer at pH 7.5, 35-37° C. The starting epoxide concentration used was 10 mM. After 150 minutes the resolution was stopped by short and rapid heating to 80° C. and enantiopure epoxide (>99% ee, GC-analysis) could be obtained with 50% conversion (100% of the theoretical yield). […]

whole cell R. glutinis = assay: Hydrolysis of epoxy nitriles by whole resting cells of Rhodotorula glutinis; format: cell-based, Rhodotorula glutinis CBS 8761; details: 50 mM potassium phosphate buffer pH 7.5, 35-37° C., 10 mM epoxide
Experimental: The racemic resolution of the epoxy nitriles was performed with 24 g/L (dry weight) of whole resting cells of Rhodotorula glutinis CBS 8761 in an aqueous solution of 50 mM potassium phosphate buffer at pH 7.5, 35-37° C. The starting epoxide concentration used was 10 mM. After 150 minutes the resolution was stopped by centrifugation and separation of the supernatant liquid and enantiopure epoxide (>99% ee, GC-analysis) could be obtained with 50% conversion (100% of the theoretical yield).
Determination of reaction and extraction progress as well as enantiomeric excess were performed by gas chromatography (GC) using fused silica cyclodextrin capillary column (FS-CYCLODEX alpha-I/P 50 m length, 0.32 mm ID, Chromatography Service GmbH) on an Hewlett-Packard 6890 gas chromatograph equipped with FID detector and using H2 as carrier gas at 120° C. and 0.6 bar pressure.
Examples 12 and 13 were carried out analogously to examples 8 and 10 using 2-cyano-3,3-dimethyl-oxirane as substrate.

## N#CC1OC12CCCCC2 (racemic) [1-oxa-spiro[2.5]octane-2-carbonitrile]
Eph1
  activity [U/g (protein)] cell free extract E. coli: 3000 (example 16) U/g (protein)
Whole cell R. glutinis
  activity [U/g (dry weight)] whole cell R. glutinis: 6 (example 14) U/g (dry weight)

## CC1(C)OC1C#N (stereo not shown) [2-cyano-3,3-dimethyl-oxirane]
Eph1
  activity [U/g (protein)] cell free extract E. coli: 300 (example 19) U/g (protein)
Whole cell R. glutinis
  activity [U/g (dry weight)] whole cell R. glutinis: 3 (example 18) U/g (dry weight)

— patent publication US20030134401A1, “Process for the stereoselective preparation of functionalized vicinal diols” (priority 2001, published 2003)
